Here are results for 1 substance from US7029846B2, “Site-specific protein modification” (University of Medicine and Dentistry of New Jersey, priority 2000, dated 2006).

Starred links: 1 amine or outer side, 2 acyl side, 3 side chain; linkers in the order of their positions; H or OH if unused. Non-standard residues stand in square brackets, D forms with d. No end group written: not given here. Tyr(3-Ac) = 3-acetyl-tyrosine, CC(=O)c1cc(C[C@H](N[*:1])C(=O)[*:2])ccc1O[*:3]

In the experiment the target is rhodamine labeled TAR RNA (TAR-Rh). As to the kind of experiment: FRET fluorescence quenching titration of fluorescein labeled Tat peptide with rhodamine labeled TAR RNA. In kind it is binding, HIV-1. The conditions noted are these: quenching of Tat-Fl (5 nM) emission at 512 nm with increasing TAR-Rh, 50 mM Tris-HCl, pH 7.4 at 25° C., 20 mM KCl, fit to quadratic equation (1), read-out: dissociation constant (KD). The method, then: FIG. 2(B). Fluorescence intensity of Tat-Fl (5 nM) at 512 nm in the presence of increasing TAR-Rh concentrations. The solid line represents the best fits of the data by nonlinear regression to quadratic equation (1). The fluorescence measurements were performed on PTI fluorescence spectrophotometer controlled by Felix software. The excitation wavelength was 492 nm and slits width was set 3.5 nm for both excitation and emission. All samples were corrected for the light source excitation effect and for the background intensity of buffer fluorescence as well as for dilution factors. Buffer conditions: […] Tris-HCl, pH 7.4 at 25° C., 20 mM KCl.
To determine the binding affinities of a Tat peptide under physiological conditions and test the application of acetyl-Tyr, we developed a fluorescence resonance energy transfer (FRET) system containing TAR RNA and a Tat peptide uniquely labeled with donor and acceptor dye molecules (FIG. 1). […] (Clegg, R. M. (1992) Fluorescence resonance energy transfer and nucleic acids, Methods Enzymol. 211, 353–88; Yang, M., and Millar, D. P. (1997) Fluorescence resonance energy transfer as a probe of DNA structure and function, Methods Enzymol. 278, 417–444). The donor's lifetime and quantum yield are reduced upon energy transfer, and the acceptor fluorescence is increased, or sensitized. […]

A word on the Kd: it is the equilibrium constant for the complex coming apart. For “Acetyl-Tyr-Tat peptide: HIV-1 Tat peptide (amino acids 47–56) with Tyr-47 replaced by 3-Acetyl-Tyrosine ([Tyr(3-Ac)]GRKKRRQRR)”, the Kd amounted to 1 ± 0.5 nM.
